# According to patent US20090252703A1, “Use of alcohol co-solvents to improve pegylation reaction yields” (priority 2006, published 2009):
# Experiment: solubility of CGRP peptides in aqueous conjugation buffer
# Format: physicochemical
# Settings: aqueous conjugation buffers used for coupling vehicle to the peptide
# Source text: Co-solvent mediated conjugation of vehicle to CGRP peptide antagonists.
row,Structure (SMILES),solubility in aqueous buffer medium (in words)
1,CC(=O)N[C@@H](Cc1c[nH]c2ccccc12)C(=O)N[C@H](C(=O)N[C@H](C(=O)N[C@@H](Cc1cnc[nH]1)C(=O)N[C@@H](CCCNC(N)=O)C(=O)N[C@@H](CC(C)C)C(=O)N[C@@H](C)C(=O)NCC(=O)N[C@@H](CC(C)C)C(=O)N[C@@H](CC(C)C)C(=O)N[C@@H](CO)C(=O)N[C@@H](CCCNC(N)=O)C(=O)N[C@@H](CO)C(=O)NCC(=O)NCC(=O)N[C@H](C(=O)N[C@H](C(=O)N[C@@H](CCCCNC(=N)N)C(=O)N[C@@H](CCCCN)C(=O)N[C@@H](CC(N)=O)C(=O)N[C@@H](Cc1ccccc1)C(=O)N[C@H](C(=O)N1CCC[C@H]1C(=O)N[C@H](C(=O)N[C@@H](CC(=O)O)C(=O)N[C@H](C(=O)NCC(=O)N1CCC[C@H]1C(=O)N[C@@H](Cc1ccccc1)C(=O)N[C@@H](C)C(=O)N[C@@H](Cc1ccccc1)C(N)=O)C(C)C)[C@@H](C)O)C(C)C)C(C)C)C(C)C)[C@@H](C)O)C(C)C [SEQ ID NO:2],relatively insoluble
2,CC(=O)N[C@@H](Cc1c[nH]c2ccccc12)C(=O)N[C@H](C(=O)N[C@H](C(=O)N[C@@H](Cc1cnc[nH]1)C(=O)N[C@@H](CCCNC(N)=O)C(=O)N[C@@H](CC(C)C)C(=O)N[C@@H](C)C(=O)NCC(=O)N[C@@H](CC(C)C)C(=O)N[C@@H](CC(C)C)C(=O)N[C@@H](CO)C(=O)N[C@@H](CCCNC(N)=O)C(=O)N[C@@H](CO)C(=O)NCC(=O)NCC(=O)N[C@H](C(=O)N[C@H](C(=O)N[C@@H](CCCCNC(=N)N)C(=O)N[C@@H](CCCCN)C(=O)N[C@@H](CC(N)=O)C(=O)N[C@@H](Cc1ccccc1)C(=O)N[C@H](C(=O)N1CCC[C@H]1C(=O)N[C@H](C(=O)N[C@@H](CC(=O)O)C(=O)N[C@H](C(=O)NCC(=O)N1C2CCCCC2C[C@H]1C(=O)N[C@@H](Cc1ccccc1)C(=O)N[C@@H](C)C(=O)N[C@@H](Cc1ccccc1)C(N)=O)C(C)C)[C@@H](C)O)C(C)C)C(C)C)C(C)C)[C@@H](C)O)C(C)C (stereo partly drawn) [SEQ ID NO:3],relatively insoluble
3,CC(=O)N[C@@H](Cc1c[nH]c2ccccc12)C(=O)N[C@H](C(=O)N[C@H](C(=O)N[C@@H](Cc1cnc[nH]1)C(=O)N[C@@H](CCCN=C(N)N)C(=O)N[C@@H](CC(C)C)C(=O)N[C@@H](C)C(=O)NCC(=O)N[C@@H](CC(C)C)C(=O)N[C@@H](CC(C)C)C(=O)N[C@@H](CO)C(=O)N[C@@H](CCCN=C(N)N)C(=O)N[C@@H](CO)C(=O)NCC(=O)NCC(=O)N[C@H](C(=O)N[C@H](C(=O)N[C@@H](CCCN=C(N)N)C(=O)N[C@@H](CCCCN)C(=O)N[C@@H](CC(N)=O)C(=O)N[C@@H](Cc1ccccc1)C(=O)N[C@H](C(=O)N1CCC[C@H]1C(=O)N[C@H](C(=O)N[C@@H](CC(=O)O)C(=O)N[C@H](C(=O)NCC(=O)N1CCC[C@H]1C(=O)N[C@@H](Cc1ccccc1)C(=O)N[C@@H](C)C(=O)N[C@@H](Cc1ccccc1)C(N)=O)C(C)C)[C@@H](C)O)C(C)C)C(C)C)C(C)C)[C@@H](C)O)C(C)C [SEQ ID NO:7],relatively soluble
